Assay results from patent publication US7632819B1, “Methods and compositions for inhibiting PKC delta cleavage for treatment and prevention of neurodegeneration and apoptosis” (Iowa State University Research Foundation, Inc., priority 2004, dated 2009).
Where a SMILES comes first, the peptide text is derived from it. The star is where a group is joined. Cbz = O=C(OCc1ccccc1)*; CH2F = FC*

How the values were obtained:
[1] = system: N27 mesencephalic neuronal cells; experiment: MTT cytotoxicity assay, MPP+- and 6-OHDA-induced cytotoxicity; conditions: N27 cells, 100 μM 6-OHDA 24 hr, inhibitor 50 μM
Excerpt: (§1) Chemicals. Protease cocktail, ATP, protein-A-sepharose, protein-G-sepharose and anti-â-actin antibody were obtained from Sigma-Aldrich (St. Louis, Mo.); mouse tyrosine hydroxylase antibody was purchased from Chemicon (Temecula, Calif.); the rabbit polyclonal antibody for tyrosine hydroxylase was obtained from Calbiochem Bioscience, Inc. (King of Prussia, Pa.); rabbit PKCδ antibody was purchased from Santa Cruz Biotechnology, Inc. (Santa Cruz, Calif.); anti-rabbit and anti-mouse secondary antibodies and the ECL chemiluminescence kit were purchased from Amersham Pharmacia Biotech. (Piscataway, N.J.). Alexa 488 conjugated antirabbit/mouse, Cy3 conjugated anti-rabbit/mouse antibody and Hoechst 33342 were purchased from Molecular Probes, Inc. (Eugene, Oreg.). [ã-32P]ATP was purchased from Perkin Elmer Life Science Products (Boston, Mass.). The Bradford protein assay kit was purchased from Bio-Rad Laboratories (Hercules, Calif.). RPMI, fetal bovine serum, -glutamine, penicillin, and streptomycin were purchased from Invitrogen (Gaithersburg, Md.). Quantity One 4.2.0 software was purchased from Bio-Rad. Design and synthesis of z-DIPD-fmk (SEQ ID NO:5). To develop a cell permeable peptide inhibitor to specifically block PKCδ cleavage, we designed the tetrapeptide Asp-Ile-Pro-Asp (DIPD) (SEQ ID NO:5) corresponding to position 324-327 in rat PKCδ cDNA representing the caspase-3 cleavage site. Since this peptide is directed against the caspase-3 cleavage site of PKCδ, it should prevent the proteolytic cleavage and activation of PKCδ mediated by caspase-3. The custom synthesis of the tetrapeptide Z-Asp(OMe)-Ile-Pro-Asp(OMe)-FMK (SEQ ID NO:5) was performed at MP Biomedicals (Irvine, Calif.), a quality company that specializes in developing cell permeable peptide inhibitors directed against apoptosis cell signaling molecules. […]

[2] = system: PKCδ; experiment: Immunoprecipitation kinase assay (histone H1 phosphorylation) in N27 cells; format: cell-based, rat; conditions: inhibitor 50 μM
Excerpt: as §1, with “molecules. Briefly, the synthesis was performed with the reaction of Boc-D(OMe)-OH with MBFM (Magnesium benzyl fluoromalonate) to produce Beta-Keto fluoroester, followed by hydrogenation with Pd/c to produce Boc-D(OMe)FK, which was converted into Tfa salt using trifluoroacetic acid. Coupling of Tfa salt with Z-D(OMe)—I—P—OH in DMF with HOBT, HBTU DIEA and workup produced a crude product which was purified by column chromatography over silica gel. Elution with EtOAC:MeOH 95:5 gave pure fractions which were mixed and dried. Crystallization with EtOAC/Hexane, filtration and drying produced the pure product. Animals. Time-pregnant C57/bL mice were housed under standard conditions: constant temperature (22±1° C.), humidity (relative, 30%) and a 12-h light/dark cycle with free access to food and water. The animals and protocol procedures were approved and supervised by the Committee on Animal Care (COAC) at Iowa State University. Cell culture.” for “molecules.”

With `CC[C@H](C)[C@H](NC(=O)[C@H](CC(=O)OC)NC(=O)OCc1ccccc1)C(=O)N1CCC[C@H]1C(=O)N[C@@H](CC(=O)OC)C(=O)CF` [z-DIPD-fmk, Z-Asp(OMe)-Ile-Pro-Asp(OMe)-FMK] (Cbz-D(OMe)IPD(OMe)-CH2F) the “protection against 6-OHDA-induced cell death (MTT)” value [1] was “significantly protected”, the “effect on 6-OHDA-induced PKCδ kinase activity” value ([2]; 100 μM 6-OHDA 24 hr) was “almost completely suppressed” and the “effect on MPP+-induced PKCδ kinase activity” value ([2]; 300 μM MPP+ 36 hr) was “almost completely suppressed”.
